Data on one substance can be found in US11912755B2, “Endostatin fragments and variants for use in treating fibrosis” (iBio, Inc., priority 2015, dated 2024).

Experiment [1] deals with human primary skin fibroblasts. Briefly: Western blot of ECM production in primary skin fibroblasts. In kind it is cell-based. The settings on record: dermal fibroblasts of healthy controls, SSc or morphea patients. On the procedure:
Primary Fibroblast Culture. Human primary lung and skin fibroblasts were cultured. The explanted lungs of normal organ donors, patients with SSc or IPF, and clinically involved skin of SSc patients, a morphea patient and healthy donors were used for primary fibroblast culture. Approximately 2-cm pieces of peripheral lung and skin were minced and fibroblasts were cultured in Dulbecco's modified Eagle's medium (DMEM; Mediatech, Herndon, Va.) supplemented with 10% FBS, penicillin, streptomycin, and anti-mycotic agent, as previously described (Feghali et al., Arthritis Rheum 1999; 42:1451-7). All the cells were used between passages 3-6.
Western Blot Analysis. Cellular lysates were obtained from cultured fibroblasts as previously described (Pilewski et al., Am J Pathol 2005; 166:399-407). […] Cellular lysates were analyzed by Western blot. Signals were detected following incubation with horseradish peroxidase-conjugated secondary antibody and chemiluminescence (Perkin Elmer Life Sciences, Inc., Boston, Mass.). The intensity of individual bands with expected molecular sizes was semi-quantitatively analyzed using the image/J® software available at on the Internet (/rsb.info.nih.gov/ij/index.html), and normalized to individual GAPDH intensity.

Experiment [2] deals with lysyl oxidase (LOX). As to the kind of experiment: LOX immunohistochemistry in lung sections of bleomycin-treated mice. In kind it is in vivo, mouse. To be noted: bleomycin with or without E4. The text has this: FIG. 12. […] Lung sections of mice treated with BLM with or without E4 were used in immunohistochemistry to detect LOX. The sections shown are control IgG, phosphate buffered saline, bleomycin and bleomycin followed by treatment with E4.

The test system of experiment [3] is lysyl oxidase (LOX). As to the kind of experiment: LOX Western blot in conditioned media of primary human lung fibroblasts. The class given is cell-based. To be noted: TGF-β followed 30 min later by E4; 48 h. On the procedure: FIG. 13. E4 reduces fibrosis in vitro by blocking TGF-β-induced LOX production in primary human lung fibroblasts. Normal lung fibroblasts in passage 4 were treated with vehicle, E4, TGF-β, or TGF-β followed 30 min. later by E4. Media conditioned by the fibroblasts were analyzed using Western blot analysis after 48 hour. Lane 1: Vehicle (DMSO); Lane 2: E-4; Lane 3: TGF-β; Lane 4: TGF-β followed by E4. Similar results were obtained when LOX mRNA levels were examined by real-time PCR.
E4-mediated reduction of LOX was detected also was detected in vitro. Normal lung fibroblasts in passage 4 were treated with vehicle, E4, TGF-β, or TGF-β followed 30 minutes later by E4 (FIG. 13). Media conditioned by the fibroblasts were analyzed using Western blot analysis after 48 hrs. […] Similar results were obtained when LOX mRNA levels were examined by real-time PCR.
(A western blot detects proteins with antibodies after separation by electrophoresis.)

A further experiment deals with uPA. Briefly: Genes regulated by E4: uPA. The class given is cell-based, human. The settings on record: HuF-T; RT-qPCR, protein expression levels, enzyme activity. As to the method: (§1) Several experiments have been performed to identify the mechanisms by which E4 exerts its anti-fibrotic activity. Real-time quantitative PCR (qPCR)-based arrays were performed on RNA extracted from primary human lung fibroblasts or mouse lung tissue stimulated with various fibrotic triggers in the absence and presence of E4 treatment in order to identify genes influenced by the endostatin peptide.
(§2) The arrays identified several genes that have been previously implicated in fibrosis to be influenced by E4 treatment. These genes included connective tissue growth factor (CTGF), insulin-like growth factor binding protein (IGFBP)-3, matrix metalloproteases (MMP)-1 and MMP-3, urokinase plasminogen activator (uPA), plasminogen activator inhibitor (PAI)-1, and hepatocyte growth factor (HGF) with levels either decreased or increased in the presence of E4 as shown in TABLE 5.
In general terms: Real-time PCR tracks product formation cycle by cycle.

In another experiment the test system is PAI-1. Briefly: Genes regulated by E4: PAI-1. In kind it is cell-based, human. The settings on record: HuF-T and mouse bleomycin model of pulmonary fibrosis; RT-qPCR, protein expression. As to the method:
as §1, §2

A further experiment has as its system HGF. As to the kind of experiment: Genes regulated by E4: HGF. The class given is cell-based, human. The settings on record: HuF-T and mouse bleomycin model of pulmonary fibrosis; RT-qPCR, protein expression. On the procedure: as §1, §2
The test system of a further experiment is MMP-3. Briefly: Genes regulated by E4: MMP-3. In kind it is cell-based, human. The settings on record: HuF-T; RT-qPCR, protein expression levels, zymography. As to the method: as §1, §2
For experiment [4], the system named is bleomycin induced lung fibrosis. The settings on record: i.t.; concomitantly or 3 days after bleomycin; cited from earlier work.

“Also recorded” adds a separate entry of the source. Ends that are not written are not given here.

As to “E4: SEQ ID NO: 21, amino acids 133-180 of human endostatin with a C-terminal amide (SYCETWRTEAPSATGQASSLLGGRLLGQSAASCHHAYIVLCIENSFMT-NH2; cysteine pairing not given here)”, the “TGF-β-induced ECM production” value in experiment [1] was “reduced”. Moreover, the “LOX levels in lung” value in the experiment on lysyl oxidase (LOX) [2] is “reduces levels; also recorded: reducing levels”. For the same substance, in the experiment with lysyl oxidase (LOX) [3], the “TGF-β-induced LOX production” value is reported as “significantly reduced; also recorded: blocking”. Further, in the experiment on uPA, the “Effect of E4 peptide on uPA” value was “Increase”. Further, in the experiment with PAI-1, the “Effect of E4 peptide on PAI-1” value is “reduces; also recorded: Decrease”. Moreover, the “Effect of E4 peptide on HGF” value with HGF is “induces conversion of pro-HGF to its active chains; also recorded: Increase”. Further, the “Effect of E4 peptide on MMP-3” value with MMP-3 is “increased levels and activity; also recorded: Increase”. Also, the “pulmonary fibrosis (microscopy, hydroxyproline/collagen)” value in experiment [4] is given as “E4 significantly decreased”.
